Source: patent publication US10865384B2, “2,4,5-tri-substituted azole-based casein kinase 1 inhibitors as inducers for cardiomyogenesis” (AGENCY FOR SCIENCE, TECHNOLOGY AND RESEARCH, priority 2014, dated 2020)
“Also recorded” adds a separate entry of the source. Like-named read-outs stand apart in the source and are kept apart here.

What was measured:
[1] = system: p38α MAPK; conditions: read-out: IC50 (published by companies), p38α MAPK inhibition; cited from earlier work
[2] = system: H3 hESCs Nkx2.5eGFP/w; assay: High yield cardiomyocyte differentiation after 24 h CHIR99021 pre-treatment; type: cell-based, human; conditions: for Average beating frequency / Beat count (percentage of EBs contracting within 10 s) / Beating area: CHIR99021 only, CHIR99021 with SB203580 (days 1-8), CHIR99021 with IM-31 (days 4-8)
[3] = target: p38β MAPK (Homo sapiens (Human), UniProt Q15759); conditions: read-out: IC50 (published by companies), p38β MAPK inhibition; cited from earlier work
Chain of p38β MAPK (Q15759 whole entry): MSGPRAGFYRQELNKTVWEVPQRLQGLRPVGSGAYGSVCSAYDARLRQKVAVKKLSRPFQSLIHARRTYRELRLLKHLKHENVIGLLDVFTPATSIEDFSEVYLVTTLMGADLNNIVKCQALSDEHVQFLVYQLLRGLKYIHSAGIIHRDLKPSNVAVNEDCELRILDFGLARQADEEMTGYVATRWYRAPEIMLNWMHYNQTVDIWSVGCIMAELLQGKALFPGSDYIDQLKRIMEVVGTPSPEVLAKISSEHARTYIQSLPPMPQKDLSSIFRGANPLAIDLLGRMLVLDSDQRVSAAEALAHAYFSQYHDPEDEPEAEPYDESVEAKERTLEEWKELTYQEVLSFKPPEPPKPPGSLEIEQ

[4] = system: CK1; conditions: read-out: IC50 (published by companies), CK1 inhibition; cited from earlier work
[5] = target: PKD1 (Homo sapiens (Human), UniProt Q15139); conditions: read-out: IC50 (published by companies), PKD1 inhibition; cited from earlier work
Chain of PKD1 (Q15139 whole entry): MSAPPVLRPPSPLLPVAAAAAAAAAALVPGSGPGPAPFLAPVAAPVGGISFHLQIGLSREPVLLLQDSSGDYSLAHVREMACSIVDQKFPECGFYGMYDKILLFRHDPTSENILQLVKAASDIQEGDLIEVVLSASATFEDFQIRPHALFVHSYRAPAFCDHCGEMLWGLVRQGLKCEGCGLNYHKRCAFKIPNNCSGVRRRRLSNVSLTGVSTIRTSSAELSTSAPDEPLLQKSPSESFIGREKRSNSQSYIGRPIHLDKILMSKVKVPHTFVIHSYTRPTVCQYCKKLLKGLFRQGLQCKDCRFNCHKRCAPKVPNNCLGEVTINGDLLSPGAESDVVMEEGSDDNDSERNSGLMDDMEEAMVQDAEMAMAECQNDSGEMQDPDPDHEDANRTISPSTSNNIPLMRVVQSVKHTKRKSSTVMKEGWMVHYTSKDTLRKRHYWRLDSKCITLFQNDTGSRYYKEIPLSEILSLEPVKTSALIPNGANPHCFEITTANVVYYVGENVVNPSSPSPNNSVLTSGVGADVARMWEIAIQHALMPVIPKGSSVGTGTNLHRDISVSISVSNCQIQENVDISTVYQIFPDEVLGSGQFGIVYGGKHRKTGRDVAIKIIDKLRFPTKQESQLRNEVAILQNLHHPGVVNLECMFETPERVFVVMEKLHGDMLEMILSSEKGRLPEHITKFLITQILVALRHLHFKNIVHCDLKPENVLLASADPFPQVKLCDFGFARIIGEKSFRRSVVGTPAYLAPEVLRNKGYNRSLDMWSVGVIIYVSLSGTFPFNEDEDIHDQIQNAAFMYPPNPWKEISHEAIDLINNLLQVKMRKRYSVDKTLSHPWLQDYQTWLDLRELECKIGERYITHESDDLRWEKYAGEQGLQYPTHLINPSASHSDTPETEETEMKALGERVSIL

[6] = system: HES-3; assay: Differentiation on microcarriers; type: cell-based, human; conditions: microcarrier platform, 5 μM
Experimental: HES-3 were seeded at 2×10^5 cells/ml in the 50 ml spinner flask that contained 25 ml hESC medium and 200 mg PLL+LN-coated MC (poly-L-lysine and laminin coated microcarrier). The sample was incubated at 37° C./5% carbon dioxide for 24 hours in static conditions, after which another 25 ml hESC medium were added and the culture was then agitated at 30 rpm for 6 days. Eighty percent of the spent medium was replaced daily with fresh hESC medium. The cell concentration and cell viability were determined daily using a Nucleocounter NC-3000 (Chemometec, Davis, Calif., USA). Pluripotent markers were measured by flow cytometry on day 7. The size of the hESC/MC aggregates was measured from images taken using an Olympus IX70 microscope (Olympus, Shinjuku-ku, Tokoyo, Japan), with average dimensions determined using NIH image J software.
After 24 hours the differentiation medium was replenished, and 5 μM IWP-2 or TA-01 was added at day 3. […] On day 20 of the differentiation protocol, cells from all cultures were harvested and analyzed by fluorescence-activated cell sorting (FACS) for cardiac markers MLC2a and Tropoin T (cTnt) and MF20.
Studies with the 2,4,5-tri-substituted azole compounds were done at a fixed concentration of 5 μM at an induction day 2 and alternatively at day 3. […] On day 14 of differentiation, EBs were visually analysed for cardiomyocyte differentiation. […]

[7] = target: CK1δ (Homo sapiens (Human), UniProt P48730); assay: LanthaScreen Eu kinase binding assay, CK1δ
Chain of CK1δ (P48730 whole entry): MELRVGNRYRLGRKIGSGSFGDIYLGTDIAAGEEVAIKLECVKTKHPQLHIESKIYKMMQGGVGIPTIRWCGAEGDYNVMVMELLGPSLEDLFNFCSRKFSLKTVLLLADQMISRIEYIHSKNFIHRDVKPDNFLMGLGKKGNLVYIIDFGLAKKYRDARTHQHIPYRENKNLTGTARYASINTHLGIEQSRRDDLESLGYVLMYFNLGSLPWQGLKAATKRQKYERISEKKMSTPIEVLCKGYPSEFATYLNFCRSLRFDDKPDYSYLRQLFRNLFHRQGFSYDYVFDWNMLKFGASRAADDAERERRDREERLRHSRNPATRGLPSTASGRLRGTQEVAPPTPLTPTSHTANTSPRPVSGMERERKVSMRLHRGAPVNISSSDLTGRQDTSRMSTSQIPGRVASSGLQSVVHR

[8] = system: hESC3 Nkx2.5eGFP/w cells; assay: Differentiation in 96-U bottom ultra-low attachment well plates, GFP area imaging; type: cell-based, human; conditions: 5 μM; for Average GFP %: after CHIR99021, read on day 14, GFP area over embryoid body size; for Average GFP μm^2 / Average Area μm^2: day 14; for Average Area μm^2: embryoid body size
[9] = target: p38α MAPK (Homo sapiens (Human), UniProt Q16539); assay: HitHunter p38 MAP kinase binding assay; conditions: read-out: p38α MAPK IC50 ± SEM
Chain of p38α MAPK (Homo sapiens (Human), UniProt Q16539) (Q16539 whole entry, looked up): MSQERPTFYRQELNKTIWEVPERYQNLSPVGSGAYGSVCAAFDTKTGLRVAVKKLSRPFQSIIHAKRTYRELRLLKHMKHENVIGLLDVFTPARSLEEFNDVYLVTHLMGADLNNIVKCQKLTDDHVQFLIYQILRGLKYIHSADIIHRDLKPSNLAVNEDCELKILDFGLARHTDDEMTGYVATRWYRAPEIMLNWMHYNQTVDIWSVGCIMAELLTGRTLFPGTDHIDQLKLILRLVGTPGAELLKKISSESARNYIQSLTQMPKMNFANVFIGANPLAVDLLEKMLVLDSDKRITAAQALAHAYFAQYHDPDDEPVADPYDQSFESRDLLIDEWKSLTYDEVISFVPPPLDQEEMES

[10] = target: CK1ϵ (Homo sapiens (Human), UniProt P49674); assay: LanthaScreen Eu kinase binding assay, CK1ϵ
Chain of CK1ϵ (P49674 whole entry): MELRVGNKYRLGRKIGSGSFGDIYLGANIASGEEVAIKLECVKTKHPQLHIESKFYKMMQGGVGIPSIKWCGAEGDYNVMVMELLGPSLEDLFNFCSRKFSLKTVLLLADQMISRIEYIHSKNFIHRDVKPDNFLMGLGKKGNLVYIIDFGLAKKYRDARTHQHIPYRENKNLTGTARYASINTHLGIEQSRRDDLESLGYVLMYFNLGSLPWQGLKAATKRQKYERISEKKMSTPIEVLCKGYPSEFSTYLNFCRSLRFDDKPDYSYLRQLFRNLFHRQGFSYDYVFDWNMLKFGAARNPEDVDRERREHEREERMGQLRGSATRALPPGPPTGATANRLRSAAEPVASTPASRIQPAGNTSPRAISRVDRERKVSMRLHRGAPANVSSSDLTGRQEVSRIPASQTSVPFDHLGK

[11] = system: hESC3 Nkx2.5eGFP/w cells; assay: Cardiomyocyte differentiation of embryoid bodies, Nkx2.5 GFP by flow cytometry; type: cell-based, human; conditions: for Cardiogenic effect (GFP expression fold over DMSO): 5 μM
[12] = system: porcupine/Wnt; conditions: read-out: IC50 (published by companies), porcupine/Wnt inhibition; cited from earlier work
[13] = system: TNF-a; conditions: read-out: IC50 (published by companies), TNF-a inhibition; cited from earlier work
[14] = system: p38 MAPK; conditions: read-out: IC50 (published by companies), p38 MAPK inhibition; cited from earlier work

Cc1c[nH]c(-c2cnc(NCCNc3ccc(C#N)cn3)nc2-c2ccc(Cl)cc2Cl)n1 [CHIR99021]
IC50 [1]: 10 nM
Average beating frequency [2]: 25-30 beats per minute
Beat count (percentage of EBs contracting within 10 s) [2]: over 75%
Beating area [2]: > 5 mm^2
Nkx2.5 population ([2]; day 11, flow cytometry, 3 μM CHIR99021 for 24 h): 30%
IC50 [3]: 6.7 nM

NC(=O)c1ccc(-c2nc(-c3ccc4c(c3)OCCO4)c(-c3ccccn3)[nH]2)cc1 [Compound D4476]
IC50 [1]: 5800 nM
IC50 [5]: 9100 nM

Fc1ccc(-c2nc(-c3c(F)cccc3F)[nH]c2-c2ccncc2)cc1 [IM-31, 4-(2-(2,6-difluorophenyl)-4(5)-(4-fluorophenyl)-1H-imidazol-5(4)-yl)pyridine]
Amounts of cardiomyocytes (cell numbers) compared to IWP-2 [6]: same amounts of cardiomyocytes
IC50 ([7]; Table 3, read-out: IC50 CK1δ): 6.8 nM
IC50 ([7]; read-out: CK1δ IC50 ± SEM): 6.8 ± 0.9 nM
Cardiogenic properties ([8]; at specific time course (induction day 2 or 3)): higher cardiogenic properties as SB203580 and IWP-2
Average GFP % ([8]; Induction Day 2): 1.5%
Average GFP μm^2 ([8]; Induction Day 2): 19.1 μm^2
Average Area μm^2 ([8]; Induction Day 2): 814.7 μm^2
Average GFP % ([8]; Induction Day 3): 31.1%
Average GFP μm^2 ([8]; Induction Day 3): 476.6 μm^2
Average Area μm^2 ([8]; Induction Day 3): 1529.1 μm^2
IC50 [9]: 6.7 ± 1.5 nM
IC50 ([10]; Table 3, read-out: IC50 Ck1ε): 6.4 nM
IC50 ([10]; read-out: CK1ϵ IC50 ± SEM): 6.4 ± 0.4 nM
Cardiogenic effect (Nkx2.5 expression) ([11]; 1 μM): same cardiogenic effect as 5 μM of SB203580
Cardiogenic effect (GFP expression fold over DMSO) ([11]; days 1-8 of differentiation): complete inhibition of cardiomyocyte development; also recorded: failed to induced cardiomyogenesis
Cardiogenic effect (GFP expression fold over DMSO) ([11]; days 4-8 of differentiation): good inducers
Cardiomyocytes generated ([11]; applied as the sole inhibitor): 10-20%
Total cell count, fold increase (cell expansion) ([2]; 3 μM CHIR99021 24 h then 5 μM days 4-8, day 11): 2 fold
Average beating frequency [2]: 25-30 beats per minute
Beat count (percentage of EBs contracting within 10 s) [2]: over 75%
Beating area [2]: > 5 mm^2
Cardiomyocyte development ([2]; CHIR99021 then 5 μM days 1-8): inhibition of cardiomyocytes development
Cardiomyocyte yield, cardiomyocytes per hESC seeded ([2]; CHIR99021 then 5 μM days 4-8, day 11): ~1.2 cardiomyocytes per hESC seeded
Cardiomyocyte yield compared to other Wnt inhibitor compounds such as IWP-2 ([2]; combination with CHIR99021): twofold increase in cardiomyocyte yield

Cc1ccc2nc(NC(=O)CSc3nc4c(c(=O)n3-c3ccccc3)SCC4)sc2c1 [IWP-2, reference compound]
IC50 [12]: 27 nM
Average GFP % ([8]; Induction Day 2): 4.8%
Average GFP μm^2 ([8]; Induction Day 2): 19.6 μm^2
Average Area μm^2 ([8]; Induction Day 2): 362.9 μm^2
Average GFP % ([8]; Induction Day 3): 38.4%
Average GFP μm^2 ([8]; Induction Day 3): 216.9 μm^2
Average Area μm^2 ([8]; Induction Day 3): 604.5 μm^2
Cell growth ([2]; CHIR99021 then 5 μM days 4-8): strongly reduced cell growth
Cardiomyocyte functionality ([2]; combination with CHIR99021, days 4-8): reduced functionality

Skepinone-L
IC50 [13]: 40 nM
IC50 [14]: 5 nM
